One compound from US12257251B2, “Use of FAK inhibitor in preparation of drug for treating tumors having NRAS mutation” (INXMED (NANJING) CO., LTD., priority 2019, dated 2025) can be followed below.

One may read the pIC50 as the IC50 on a negative log10 scale, so that one unit is a factor of ten.

pIC50: −log10 of the molar value. Where two headings read alike, the source gives them in different places.

Data set [1] has as its system HMVII (NRAS^Q61K) melanoma cell line. Put plainly: HMVII CDX model (melanoma with an NRAS mutation): tumor growth. The following applies: for Tumor growth compared to the control group (in words): HMVII model, daily treatment; for Mean TGI: daily, based on relative tumor volume on day 14. In kind it is in vivo, mouse. As to the method:
(§1) 1.1. Test compound: BI853520, which was synthesized according to the method in the patent WO2010058032. BI853520 was formulated with 0.5% hydroxyethyl cellulose (Ashland).
(§2) 1.2. Cells: The melanoma cell line GAK was purchased from JCRB Cell Bank, and HMVII cells were purchased from Sigma. GAK originated in the inguinal lymph nodes of patients with vaginal melanoma, whereas HMVII originated in primary vaginal melanoma. GAK and HMVII cells were cultured in tissue culture flasks containing 5% CO2 at 37° C. The media were Ham's F12 containing 10% heat-inactivated FBS and Ham's F10 containing 15% FBS, respectively. All media were supplemented with 100 U/mL penicillin, […] streptomycin, and 2 mM GlutaMAX. All cell culture reagents were purchased from GIBCO.
(§3) Both HMVII and GAK cell lines carried an NRAS mutation at the Q61 position. HMVII (NRAS^Q61K) and GAK (NRAS^Q61L)
(§4) 1.3. Mice: 4-week-old female balb/c nude mice (purchased from Beijing Vital River Laboratory Animal Technology Co., Ltd.). After arriving in the animal room, the mice were allowed to acclimate to the new environment for at least 2 weeks before being used for assay. The animals were housed under standard conditions (temperature: 21.5±1.5° C., humidity: 55±10%). A Standard diet and autoclaved tap water were provided ad libitum. All animal care and experimental procedures were performed in accordance with the animal care ethics guidelines approved by the Medical Ethics Committee of Beijing Cancer Hospital and Research Institute.
(§5) To establish subcutaneous tumors, HMVII and GAK cells were harvested by trypsinization, centrifuged, washed and resuspended in ice-cold PBS+5% FCS. Then 100 l of the cell suspension containing 5×10^6 cells was injected subcutaneously into the right flank of nude mice (1 site per mouse). When tumors were well established and reached a median volume of approximately 400-600 mm^3, mice were randomly assigned to the treatment group and the control group.
(§6) 1.5. Administration: BI 853520 was formulated in 0.5% hydroxyethyl cellulose, which was intragastrically administered through gavage needle every day, and the dosage was 10 mL/Kg body weight.
(§7) Tumor diameters were measured twice a week with calipers. The volume [mm^3] of each tumor was calculated according to the equation “tumor volume=length×diameter^2×π/6”. Animals were sacrificed at the end of the study (approximately two weeks after the start of treatment). During the study, animals with necrotic tumors or tumors exceeding 2000 mm^3 in size were sacrificed for ethical reasons.
(§8) Tumor volumes were statistically assessed at the end of the assay. For tumor volume, relative values were used.
(§9) The number of observations, and the median, minimum and maximum tumor volumes were calculated. For a quick overview of possible treatment effects, the following metrics were calculated: • Relative tumor volume: (T/C)
(§10) [formula] • TGI from day 1 to day d: TGI=100×[(Cd−C1)−(Td−T1)]/(Cd−C1) • wherein, C1, T1=mean relative tumor volume in control and treatment groups at the start of the assay (day 1); • Cd, Td=mean relative tumor volume in control and treatment groups at the end of the assay (day d).
(§11) Statistical evaluation was performed using the Student's t-test function in Microsoft Excel, using two-tailed distribution and two-sample equal variance type.
(§12) The significance level was fixed at α=5%. […]

In data set [2] the test system is GAK (NRAS^Q61L) melanoma cell line. The data set can be described thus: GAK CDX model (melanoma with an NRAS mutation): tumor growth. Format: in vivo, mouse. To be noted: for Tumor growth compared to the control group (in words): GAK model, daily treatment; for Mean TGI: daily, based on relative tumor volume on day 14. As for the experimental part: as §1, §2, §3, §4, §5, §6, §7, §8, §9, §10, §11, §12

The test system of data set [3] is Ba/F3-NRAS^G12D cell line. Put plainly: Antiproliferative test (CellTiter Glo, 48 hours) in NRAS^G12D-transfected Ba/F3 cells. In kind it is cell-based, murine. The following applies: for pIC50: Mus musculus. As to the method: The Ba/F3 cell line was obtained from ATCC in 2009, and cultured according to a method described in Zhang X Ren R. Bcr-abl efficiently induces a myeloproliferative disease and production of excess interleukin-3 and granulocyte-macrophage colony-stimulating factor in mice: A novel model for chronic myelogenous leukemia. Blood., 1998, 92: 3829-40. Growth factor-dependent BA/F3 cells were cultured in RPMI 1640 including 10% FBS and supplemented with 15% WEHI-3 conditioned medium or recombinant IL-3 (Roche) as a source of IL-3 at a final concentration of 1 ng/ml. […] Cancer Res., 2007, 67: 7139-46 and Fredericks J, Ren R. The role of RAS effectors in BCRIABL induced chronic myelogenous leukemia. Front Med China., 2013, 7: 452-61. Upon receipt of the original stock, cells were expanded and frozen at a low passage rate (<3). Frozen cells were thawed and used in this study, with cell passages limited to 15 for all experimental procedures. All cells were tested regularly to ensure freedom and maintenance in a normal state of mycoplasma.
NRAS^G12D-transfected Ba/F3 (Ba/F3-N) or KRAS^G12D-transfected Ba/F3 ([…]) cells were seeded into 96-well cell culture cluster plate in 100 μL of medium at a density of 5,000 cells per well. BI853520 was diluted 3-fold with RPMI 1640 at 9 points, and added according to the volume of each well, starting at 10 μmol/L to reach a 3-fold concentration gradient (final solvent concentration <1/1000). PD0325901 was used as a positive control. After 48 hours of incubation, cell viability was measured using CellTiter Glo (Promega). Luminescence was detected using an Envision plate reader (PerkinElmer). The calculation method of Z factor was as described in Zhang J H, Chung T D Y, Oldenburg K R. A simple statistical parameter for use in evaluation and validation of high throughput screening assays. J Biomol Screen., 1999, 4: 67-73, and the following analysis only used data with Z factor >0.6. […]

For data set [4] the following is noted: in vivo.

`COc1cc(C(=O)NC2CCN(C)CC2)c(F)cc1Nc1ncc(C(F)(F)F)c(Oc2cccc3c2C(=O)N(C)C3)n1` [BI853520]: the “Tumor growth compared to the control group (in words)” value in data set [1] is listed as “inhibit tumor growth”; in data set [1] (listed as BI 853520), “delayed tumor growth”; in data set [2] it was “inhibit tumor growth”; in data set [2] (listed as BI 853520), “delayed tumor growth”. The Mean tumor volume in data set [1] (HMVII, 50 mg/kg (1st week), 25 mg/kg (2nd week), daily gavage, day 14) was 671 ± 606 mm^3; in data set [2] (GAK, 50 mg/kg (1st week), 25 mg/kg (2nd week), daily gavage, day 14), 548 ± 144 mm^3. In addition, the “Mean TGI” value in data set [1] (HMVII, 50 mg/kg (1st week), 25 mg/kg (2nd week)) was found to be 60%; in data set [1] (HMVII, 50 mg/kg (1st week), 25 mg/kg (2nd week), listed as BI 853520), 60%; in data set [2] (GAK, 50 mg/kg (1st week), 25 mg/kg (2nd week)), 80%; in data set [2] (GAK, 50 mg/kg (1st week), 25 mg/kg (2nd week), listed as BI 853520), 80%. For the same compound, the “Increase of IC50 after addition of IL-3” value in data set [3] (+ IL-3 versus − IL-3) is on record as “more than 4 fold”. The pIC50 in data set [3] (BaF3, after addition of IL-3, 48 hours, read-out: IC50 (antiproliferative effect), + IL-3) is 4.82; in data set [3] (BaF3, without IL-3, 48 hours, read-out: IC50 (antiproliferative effect), − IL-3), 5.47. Moreover, the “Highest daily dose without limiting toxicity” value in data set [4] was 100 mg/kg.
